# Test results: US6376675B2, “Muscarinic receptor agonists” (The University of Toledo, priority 1999, dated 2002)
# Counter-ions that a name gives are not always drawn.
# Key:
# M1 muscarinic receptors = target: T1, M1 muscarinic receptors (Homo sapiens, UniProt P11229); experiment: Muscarinic receptor binding at M1 receptors; conditions: for affinity for muscarinic receptors: as compared to the parent compound xanomeline; for Ki: Table 3
# T1 construct: expressed in transfected cells; host or cells: A9 L cells
# T1 sequence (P11229 1-460): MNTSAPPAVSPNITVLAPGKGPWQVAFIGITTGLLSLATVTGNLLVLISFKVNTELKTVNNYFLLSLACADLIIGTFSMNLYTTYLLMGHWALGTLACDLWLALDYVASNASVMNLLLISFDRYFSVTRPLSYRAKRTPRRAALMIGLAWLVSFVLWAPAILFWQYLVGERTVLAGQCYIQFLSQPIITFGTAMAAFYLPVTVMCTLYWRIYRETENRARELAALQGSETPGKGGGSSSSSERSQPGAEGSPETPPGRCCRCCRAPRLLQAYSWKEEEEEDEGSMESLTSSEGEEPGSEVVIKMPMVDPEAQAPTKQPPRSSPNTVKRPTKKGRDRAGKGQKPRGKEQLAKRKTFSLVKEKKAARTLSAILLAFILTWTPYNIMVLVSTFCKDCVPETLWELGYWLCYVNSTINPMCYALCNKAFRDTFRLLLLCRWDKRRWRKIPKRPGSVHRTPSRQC
# Description: (§1) The compounds of Formula III incorporate hydrogen bonding elements as ester isosteres (i.e., alcohols, […], 1,2,5-thiadiazoles) at the end of an alkyl or alkyloxy linking group as shown below. The compounds lack a second tetrahydropyridine moiety.
# [1] = target: T2, M1 muscarinic receptors expressed in A9 L cells (Homo sapiens, UniProt P11229); experiment: Phosphoinositide (PI) metabolism at M1 muscarinic receptors expressed in A9 L cells; format: cell-based; conditions: for EC50 / Phosphoinositide metabolism Smax: A9 L cells, Table 3
# T2 construct: expressed in transfected cells; host or cells: A9 L cells
# T2 sequence (P11229 1-460): T1 sequence (P11229 1-460)
# Description: as §1
melting point [°C],EC50 [1] [nM],Phosphoinositide metabolism Smax [1] [%],Ki (M1 muscarinic receptors) [nM],SMILES,also measured
97 to 98,–,–,–,"CN1CCC=C(c2nsnc2OCCCCCCCCCCCCO)C1 (as salt: hydrochloride) [CDD-0297-A, 12-[3-(1-Methyl-1,2,5,6-tetrahydropyrid-3-yl)-1,2,5-thiadiazol-4-yloxy]-1-dodecanolhydrochloride]",–
85 to 86,–,–,–,"CC(=O)OCCCCCCCCCCCCOc1nsnc1C1=CCCN(C)C1 (as salt: hydrochloride) [CDD-0299-A, 12-[3-(1-Methyl-1,2,5,6-tetrahydropyrid-3-yl)-1,2,5-thiadiazol-4-yloxy]-1-dodecyl acetate hydrochloride]",–
64.5 to 66,–,–,–,"CCOCCOCCOCCOCCOc1nsnc1C1=CCCN(C)C1 (as salt: hydrochloride) [CDD-0301-A, Tetra(ethylene glycol) ethyl [3-1-methyl-1,2,5,6-tetrahydropyrid-3-yl)-1,2,5-thiadiazol-4-yl] ether hydrochloride]",–
55 to 55.5,–,–,–,"CC(=O)OCCOCCOCCOCCOc1nsnc1C1=CCCN(C)C1 (as salt: hydrochloride) [CDD-0303-A, Tetra(ethylene glycol) [3-(1-methyl-1,2,5,6-tetrahydropyrid-3-yl)-1,2,5-thiadiazol-4-yl] ether acetate hydrochloride]",–
–,–,–,–,"CN1CCC=C(c2nsnc2OCCCCCCCCCCCCOc2nsnc2C2=CCCN(C)C2)C1 [(CH2)12, 1,12-bis-[3-(1-methyl-1,2,5,6-tetrahydropyrid-3-yl)-1,2,5-thiadiazol-4-yloxy]-dodecane]",affinity for muscarinic receptors (M1 muscarinic receptors): very high affinity
–,–,–,–,"CN1CCC=C(c2nsnc2OCCOCCOCCOCCOc2nsnc2C2=CCCN(C)C2)C1 [(CH2CH2)4O3, 2,2′-bis-{[3-(1-methyl-1,2,5,6-tetrahydropyrid-3-yl)-1,2,5-thiadiazol-4-yloxy]ethyloxy}-diethyl ether]","Smax ([1]; PI metabolism, full dose-response curves, Table 2): 250 ± 36%; affinity for muscarinic receptors (M1 muscarinic receptors): very high affinity"
–,2600,250 ± 28,16 ± 3.1,"CN1CCC=C(c2nsnc2OCCCCCCCCCCCCO)C1 [CDD-0297-A, 12-[3-(1-Methyl-1,2,5,6-tetrahydropyrid-3-yl)-1,2,5-thiadiazol-4-yloxy]-1-dodecanolhydrochloride]",–
–,3400,280 ± 17,16 ± 13,"CC(=O)OCCCCCCCCCCCCOc1nsnc1C1=CCCN(C)C1 [CDD-0299-A, 12-[3-(1-Methyl-1,2,5,6-tetrahydropyrid-3-yl)-1,2,5-thiadiazol-4-yloxy]-1-dodecyl acetate hydrochloride]",–
–,710,240 ± 64,150 ± 42,"CN1CCC=C(c2nsnc2OCCOCCOCCOCCO)C1 [CDD-0300-A, Tetra(ethylene glycol) mono[3-(1-methyl-1,2,5,6-tetrahydropyrid-3-yl)-1,2,5-thiadiazol-4-yl] ether hydrochloride]",–
–,29000,420 ± 220,570 ± 220,"CCOCCOCCOCCOCCOc1nsnc1C1=CCCN(C)C1 [CDD-0301-A, Tetra(ethylene glycol) ethyl [3-1-methyl-1,2,5,6-tetrahydropyrid-3-yl)-1,2,5-thiadiazol-4-yl] ether hydrochloride]",–
–,–,–,280 ± 130,"CC(=O)OCCOCCOCCOCCOc1nsnc1C1=CCCN(C)C1 [CDD-0303-A, Tetra(ethylene glycol) [3-(1-methyl-1,2,5,6-tetrahydropyrid-3-yl)-1,2,5-thiadiazol-4-yl] ether acetate hydrochloride]",–
–,64,600 ± 56,38 ± 23,"COc1nsnc1OCCOCCOCCOCCOc1nsnc1C1=CCCN(C)C1 [CDD-0304-A, Tetra(ethyleneglycol)(4-methoxy-1,2,5-thiadiazol-3-yl)[3-(1-methyl-1,2,5,6-tetrahydropyrid-3-yl)-1,2,5-thiazdiazol-4-yl] ether hydrochloride]",–
